Reference: US20250340739A1 ([…] SOLUTIONS, priority 2022, published 2025)
Read-outs that look alike come from different tables or passages of the source.

Conditions: solid state
[1] = amber glass, away from light, t = 1 month
[2] = amber glass, away from light, t = 2 months
[3] = amber glass, away from light, t = 6 months
[4] = amber type II glass, away from light, t0, % area HPLC 240 nm
[5] = amber glass, away from light, t = 5 month
[6] = amber glass, away from light, t = 4 months

Procedure: The elution is carried out by gradient. The mobile phase consists of ammonium formiate buffer 100 mM pH 4.5 (eluent A) and acetonitrile (eluent B). The composition of the mobile phase was modified continuously during the elution process according to the following Table II:

In the case of `CC1(C)C(/C=C/C=C/C=C/C=C2\N(CCCCS(=O)(=O)[O-])c3ccc4ccccc4c3C2(C)C)=[N+](CCCCS(=O)(=O)[O-])c2ccc3ccccc3c21.[Na+]` [Example 2, Indocyanine green], the “ICG purity (HPLC)” value [1] is reported as 99.25%, the “Total impurities (HPLC)” value [1] is reported as 0.75% and the “ICG purity (HPLC)” value [2] is reported as 99.09%. For the same compound, the “Total impurities (HPLC)” value [2] was 0.91%, the “ICG purity (HPLC)” value [3] was 99.03% and the “Total impurities (HPLC)” value [3] was 0.97%. The “ICG purity (HPLC)” value [4] was 99.21% and the “Total impurities (HPLC)” value [4] was 0.79%.
For `CC1(C)C(/C=C/C=C/C=C/C=C2\N(CCCCS(=O)(=O)[O-])c3ccc4ccccc4c3C2(C)C)=[N+](CCCCS(=O)(=O)[O-])c2ccc3ccccc3c21.[Na+]` [Example 3, Indocyanine green], the “ICG purity (HPLC)” value [1] was 98.39%, the “Total impurities (HPLC)” value [1] was 1.61% and the “ICG purity (HPLC)” value [5] was 97.95%. The “Total impurities (HPLC)” value [5] was 2.05%, the “ICG purity (HPLC)” value [4] was 98.60% and the “Total impurities (HPLC)” value [4] was 1.40%.
In the case of `CC1(C)C(/C=C/C=C/C=C/C=C2\N(CCCCS(=O)(=O)[O-])c3ccc4ccccc4c3C2(C)C)=[N+](CCCCS(=O)(=O)[O-])c2ccc3ccccc3c21.[Na+]` [Example 4, Indocyanine green], the “ICG purity (HPLC)” value [6] is reported as 94.11%, the “Total impurities (HPLC)” value [6] is reported as 5.89% and the “ICG purity (HPLC)” value [4] is reported as 95.98%. For the same compound, the “Total impurities (HPLC)” value [4] was 4.02%.
With `CC1(C)C(/C=C/C=C/C=C/C=C2\N(CCCCS(=O)(=O)[O-])c3ccc4ccccc4c3C2(C)C)=[N+](CCCCS(=O)(=O)[O-])c2ccc3ccccc3c21.[Na+]` [NaBr, Indocyanine green] the “ICG purity (HPLC)” value [4] was 99.95%, the “Total impurities (HPLC)” value [4] was 0.05% and the “ICG purity (HPLC)” value (t = 4 weeks) was 99.84%. The “Total impurities (HPLC)” value (t = 4 weeks) was 0.16%.
With `CC1(C)C(/C=C/C=C/C=C/C=C2\N(CCCCS(=O)(=O)[O-])c3ccc4ccccc4c3C2(C)C)=[N+](CCCCS(=O)(=O)[O-])c2ccc3ccccc3c21.[Na+]` [NaOAc, Indocyanine green] the “ICG purity (HPLC)” value [4] was 99.95%, the “Total impurities (HPLC)” value [4] was 0.05% and the “ICG purity (HPLC)” value (t = 8 weeks) was 99.65%. For the same compound, the “Total impurities (HPLC)” value (t = 8 weeks) was 0.35%.
For `CC1(C)C(/C=C/C=C/C=C/C=C2\N(CCCCS(=O)(=O)[O-])c3ccc4ccccc4c3C2(C)C)=[N+](CCCCS(=O)(=O)[O-])c2ccc3ccccc3c21.[Na+]` [NaOAsc, Indocyanine green], the “ICG purity (HPLC)” value [4] was 99.95%, the “Total impurities (HPLC)” value [4] was 0.05% and the “ICG purity (HPLC)” value (t = 8 weeks) was 99.72%. The “Total impurities (HPLC)” value (t = 8 weeks) was 0.28%.
For `CC1(C)C(/C=C/C=C/C=C/C=C2\N(CCCCS(=O)(=O)[O-])c3ccc4ccccc4c3C2(C)C)=[N+](CCCCS(=O)(=O)[O-])c2ccc3ccccc3c21.[Na+]` [NaOEt, Indocyanine green], the “ICG purity (HPLC)” value [4] was 99.58%, the “Total impurities (HPLC)” value [4] was 0.42% and the “ICG purity (HPLC)” value (t = 8 weeks) was 99.34%. The “Total impurities (HPLC)” value (t = 8 weeks) was 0.66%.
